# Measurements taken from paper PMC4578755, “Development of novel cellular histone-binding and chromatin-displacement assays for bromodomain drug discovery” (Epigenetics & Chromatin, 2015).
# Key:
# [1] = biological target: T1, GFP-tagged TRIM24 in HeLa cells (Homo sapiens, UniProt O15164); assay: GFP version of the in situ cell extraction assay; type: cell-based
# T1 construct: PB-TRIM24 PHD and bromodomain of TRIM24; expressed in transfected cells; host or cells: HeLa
# T1 sequence (O15164 810-1050 limits assumed): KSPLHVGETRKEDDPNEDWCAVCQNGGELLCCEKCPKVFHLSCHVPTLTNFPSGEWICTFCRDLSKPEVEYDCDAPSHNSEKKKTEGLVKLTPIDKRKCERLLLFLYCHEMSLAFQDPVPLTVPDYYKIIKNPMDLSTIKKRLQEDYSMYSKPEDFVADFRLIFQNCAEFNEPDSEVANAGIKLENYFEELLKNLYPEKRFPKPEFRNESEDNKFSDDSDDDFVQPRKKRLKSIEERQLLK
# Excerpt: In an HTS setting, we further simplified the in situ cell extraction procedure by replacing the indirect IF step (e.g., anti-FLAG) with cells engineered to express fluorescent moieties (e.g., GFP) fused to the protein target of interest (Additional file 1: Figure S5). In this format, the assay has minimal time and reagent costs associated with HTS operation, since no further liquid handling or processing steps are needed after detergent extraction and fixation. […] This is particularly noteworthy for two orthogonal assays that monitor either the displacement of TRIM24 from chromatin/nuclear structures or directly measure TRIM24/histone-H3 dissociation in cells.
# OV90 or HeLa cells (20,000 cells/100 µL) were seeded into 96-well plates (Corning Costar #3603) using RPMI or DMEM medium, respectively, supplemented with 10 % FBS and grown overnight. Test agents were serially diluted in DMSO (with or without SAHA) to generate 10X master compound plates. From here, 11 µL was transferred into each well containing 100 µL of growth media followed by shaking on a rotation table (15 min, 300 rpm at RT) and incubation at 37 °C for 2 h. Plates were washed once with PBS (150 µL/well) and then with cold, freshly prepared Cytoskeleton (CSK) Buffer (10 mM PIPES, 300 mM Sucrose, 100 mM NaCl, 3 mM MgCl2; pH = 6.8). Immediately thereafter, soluble, non-chromatin-bound proteins were extracted by addition of cold CSK Buffer supplemented with 0.5 % Triton X-100 (150 µL per well) for 10 min at 4 °C followed by 4 % paraformaldehyde fixation (10 min at RT) (Additional file 1: Table S3). […]
# number of fields and the number of cells in 96- and 384-well format that is enough for analysis.
# Figure S5. HTS-friendly GFP-version of the in situ cell extraction assay. (A) In situ cell extraction […]
# cells were treated with TRIM24i in 96-well plate using concentration range from 20 nM to 100
# µM. […] EC50 curve was calculated by Harmony software during the scan. […]
# Figure S6. […] Extraction buffer was added to the wells and each field of view was monitored every 3 minutes during 15 minutes. […]
# [2] = test system: histone H3K23Ac mark in HeLa cells; assay: H3K23 acetylation in HeLa cells (Western blot, anti-H3K23Ac immunostaining); type: cell-based; conditions: 2 h
# Procedure: Standard IF procedures were used. Briefly, cells were permeabilized (0.5 % Triton X-100 in PBS) for 15 min and incubated with blocking solution (DAKO #X0909) for 30 min. The following primary antibodies were used: goat anti-V5 (Bethyl #A190-119A) 1:200; mouse anti-FLAG (Sigma #F1804) 1:200; rabbit anti-BRD4 (Abcam #ab128874) 1:200; rabbit anti-TRIM24 (Proteintech #14208-1-AP) 1:400; rabbit anti-K3K23Ac (Cell Signaling #8848) 1:200, and mouse anti-histone H3 (Active Motif #39763) 1:4000. Alexa Fluor-conjugated secondary antibodies were from Invitrogen and Hoechst 33342 (Invitrogen, #H3570) was used for nuclei counterstaining (10 µg/ml). For each Alexa fluorochrome, images (4–10 fields per well; 20X magnifications) were acquired using the Operetta High-Content Screening System (PerkinElmer). Image analysis was performed in Harmony software (PerkinElmer) by selecting nuclei and cytoplasm in Hoechst channel. Gating for single cells of flat morphology was done based on nuclei area, roundness and intensity of Hoechst in the nucleus and in the cytoplasm. In every gated cell, the mean signal intensity value for each fluorochrome was calculated separately in nucleus and cytoplasm. The specific nuclear signal was estimated subtracting mean cytoplasmic value from nuclear; and average value was calculated using at least 1000 cells in each well.
Structure (SMILES),"EC50 ([1]; HeLa cells expressing GFP-tagged TRIM24, 1 h incubation)",Displacement of TRIM24-GFP from chromatin ([1]; after extraction),Time to displacement of TRIM24-GFP from chromatin ([1]; data not shown),"H3K23 acetylation (anti-H3K23Ac immunostaining) ([2]; 3 µM, HeLa control and TRIM24-PB cells)","Cellular histone H3K23Ac mark ([2]; HDAC inhibitor treatment, 2 µM, Western blot)"
"Cc1nc(S(=O)(=O)Nc2cc3c(cc2Oc2cccc(OCC(C)C)c2)n(C)c(=O)n3C)cn1C [IACS-6558, N-{1,3-dimethyl-6-[3-(2-methylpropoxy)phenoxy]-2-oxo-2,3-dihydro-1H-1,3-benzodiazol-5-yl}-1,2-dimethyl-1H-imidazole-4-sulfonamide]",2300 nM,full displacement,≤ 1 min,,
"O=C(CCCCCCC(=O)Nc1ccccc1)NO [SAHA, Suberoylanilide Hydroxamic Acid]",,,,maximal H3K23 acetylation,hyperacetylated
